# Test results as given in patent US20210253562A1, “ACYLSUFONAMIDE COMPOUNDS USEFUL AS EP3 RECEPTOR ANTAGONISTS” (Janssen Pharmaceutica NV, priority 2018, published 2021).
# Tests used:
# [1] = target: T1, CHO cells over-expressing the EP3 receptor (Homo sapiens, UniProt P43115); assay: CHO cell cAMP assay; EP3 cAMP antagonist dose response (sulprostone reference), HTRF; assay type: cell-based; settings: sulprostone 700 nM (EC80) and FSK 2 μM (EC70); read-out: CHO_cAMP IC50
# T1 construct: expressed in transfected cells; host or cells: CHO cells
# T1 sequence (P43115 1-390): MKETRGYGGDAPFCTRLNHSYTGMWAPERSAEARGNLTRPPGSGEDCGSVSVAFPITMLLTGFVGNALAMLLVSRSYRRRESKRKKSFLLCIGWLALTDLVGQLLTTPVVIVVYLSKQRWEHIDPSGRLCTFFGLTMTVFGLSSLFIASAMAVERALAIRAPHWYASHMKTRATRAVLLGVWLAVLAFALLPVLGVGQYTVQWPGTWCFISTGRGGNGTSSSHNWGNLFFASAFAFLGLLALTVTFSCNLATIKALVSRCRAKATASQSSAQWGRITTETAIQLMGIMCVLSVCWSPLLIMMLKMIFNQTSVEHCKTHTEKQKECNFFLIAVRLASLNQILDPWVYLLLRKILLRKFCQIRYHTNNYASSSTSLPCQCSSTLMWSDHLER
# Method in brief: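 EP3-overexpressing CHO cells pre-incubated with test compound, then stimulated 30 min at 37 °C with FSK (2 μM, EC70) plus sulprostone (700 nM, EC80); antagonism seen as restored cAMP. cAMP measured by HTRF 665/615 ratio, converted via on-plate standard curve. IC50 from Hill fit of 11-point dosing.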
# [2] = target: T2, EP3 membrane (EP3 receptor) (Homo sapiens, UniProt P43115); assay: [3H]-PGE2 binding; EP3 competition binding (SPA)
# T2 construct: purchased Millipore HTS092M
# T2 sequence (P43115 1-390): T1 sequence (P43115 1-390)
# Method in brief: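 SPA competition at room temperature, 2 h: EP3 membranes 2 μg/well, 2 nM [3H]-PGE2, 0.1% DMSO, in Tris/MgCl2/EDTA buffer pH 7.4. Compounds in 1:3 serial dilution; scintillation read; Ki by one-site nonlinear fit.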
Structure (SMILES),IC50 [1] [nM],Ki [2] [nM]
"O=C(NC/C(F)=C1\CCCc2cnn(-c3ccc4ccccc4c3)c21)NS(=O)(=O)c1ccc2c(c1)OCCO2 [Compound #114, (Z)—N-((2-fluoro-2-(1-(naphthalen-2-yl)-1,4,5,6-tetrahydro-7H-indazol-7-ylidene)ethyl)carbamoyl)-2,3-dihydrobenzo[b][1,4]dioxine-6-sulfonamide]",> 20000,14500
"COc1ccc(Cl)cc1S(=O)(=O)NC(=O)NC/C(F)=C1\CCCc2cnn(-c3ccc4ccccc4c3)c21 [Compound #115, (Z)-5-chloro-N-((2-fluoro-2-(1-(naphthalen-2-yl)-1,4,5,6-tetrahydro-7H-indazol-7-ylidene)ethyl)carbamoyl)-2-methoxybenzenesulfonamide]",4200,1100
"O=C(NC/C(F)=C1\CCCc2cnn(-c3ccc(C(F)(F)F)cc3)c21)NS(=O)(=O)c1ccc2c(c1)OCCO2 [Compound #116, (Z)—N-((2-fluoro-2-(1-(4-(trifluoromethyl)phenyl)-1,4,5,6-tetrahydro-7H-indazol-7-ylidene)ethyl)carbamoyl)-2,3-dihydrobenzo[b][1,4]dioxine-6-sulfonamide]",> 20000,4100
"O=C(NC/C(F)=C1/CCCc2cnn(-c3ccc(C(F)(F)F)cc3)c21)NS(=O)(=O)c1ccc2c(c1)OCCO2 [Compound #117, (E)-N-((2-fluoro-2-(1-(4-(trifluoromethyl)phenyl)-1,4,5,6-tetrahydro-7H-indazol-7-ylidene)ethyl)carbamoyl)-2,3-dihydrobenzo[b][1,4]dioxine-6-sulfonamide]",> 20000,> 10000
"O=C(NC/C(F)=C1\COCc2cnn(-c3ccc(C(F)(F)F)cc3)c21)NS(=O)(=O)c1ccc(Cl)cc1 [Compound #118, (E)-4-chloro-N-((2-fluoro-2-(1-(4-(trifluoromethyl)phenyl)-1,4-dihydropyrano[4,3-c]pyrazol-7(6H)-ylidene)ethyl)carbamoyl)benzenesulfonamide]",16000,2000
"O=C(NC/C(F)=C1\COCc2cnn(-c3ccc(C(F)(F)F)cc3)c21)NS(=O)(=O)c1cc(Cl)c(Cl)s1 [Compound #119, (E)-4,5-dichloro-N-((2-fluoro-2-(1-(4-(trifluoromethyl)phenyl)-1,4-dihydropyrano[4,3-c]pyrazol-7(6H)-ylidene)ethyl)carbamoyl)thiophene-2-sulfonamide]",230,43
"O=C(NC/C(F)=C1\CCCCc2cnn(Cc3ccc(Cl)cc3Cl)c21)NS(=O)(=O)c1cc(Cl)c(Cl)s1 [Compound #120, (Z)-4,5-dichloro-N-((2-(1-(2,4-dichlorobenzyl)-4,5,6,7-tetrahydrocyclohepta[c]pyrazol-8(1H)-ylidene)-2-fluoroethyl)carbamoyl)thiophene-2-sulfonamide]",12,10
"O=C(NC/C(F)=C1\CCCc2cnn(Cc3ccc(Cl)cc3Cl)c21)NS(=O)(=O)c1cc2ccccc2s1 [Compound #121, (Z)—N-((2-(1-(2,4-dichlorobenzyl)-1,4,5,6-tetrahydro-7H-indazol-7-ylidene)-2-fluoroethyl)carbamoyl)benzo[b]thiophene-2-sulfonamide]",159,17
"O=C(NC/C=C1\CCCc2cnn(C3CCN(c4ccc(F)cc4)CC3)c21)NS(=O)(=O)c1ccc(Cl)cc1 [Compound #122, (E)-4-chloro-N-((2-(1-(1-(4-fluorophenyl)piperidin-4-yl)-1,4,5,6-tetrahydro-7H-indazol-7-ylidene)ethyl)carbamoyl)benzenesulfonamide]",45,6
"O=C(NC/C=C1\CCCc2cnn(C3CCN(c4ccc(F)cc4)CC3)c21)NS(=O)(=O)c1cc(Cl)c(Cl)s1 [Compound #123, (E)-4,5-dichloro-N-((2-(1-(1-(4-fluorophenyl)piperidin-4-yl)-1,4,5,6-tetrahydro-7H-indazol-7-ylidene)ethyl)carbamoyl)thiophene-2-sulfonamide]",6,1
"O=C(NC/C(F)=C1\CCCc2cnn(-c3ccc(C(F)(F)F)cc3)c21)NS(=O)(=O)c1ccc(Cl)s1 [Compound #124, (Z)-5-chloro-N-((2-fluoro-2-(1-(4-(trifluoromethyl)phenyl)-1,4,5,6-tetrahydro-7H-indazol-7-ylidene)ethyl)carbamoyl)thiophene-2-sulfonamide]",798,100
"O=C(NC/C(F)=C1\CCCc2cnn(-c3ccc(C(F)(F)F)cc3)c21)NS(=O)(=O)c1cc(Cl)c(Cl)s1 [Compound #125, (Z)-4,5-dichloro-N-((2-fluoro-2-(1-(4-(trifluoromethyl)phenyl)-1,4,5,6-tetrahydro-7H-indazol-7-ylidene)ethyl)carbamoyl)thiophene-2-sulfonamide]",20,3
"CS(=O)(=O)c1ccc(-n2ncc3c2/C(=C/CNC(=O)NS(=O)(=O)c2cc(Cl)c(Cl)s2)CCC3)cc1 [Compound #126, (E)-4,5-dichloro-N-((2-(1-(4-(methylsulfonyl)phenyl)-1,4,5,6-tetrahydro-7H-indazol-7-ylidene)ethyl)carbamoyl)thiophene-2-sulfonamide]",30,1
"O=C(NC/C(F)=C1\CCCc2onc(Cc3ccc(Cl)cc3Cl)c21)NS(=O)(=O)c1cc(Cl)c(Cl)s1 [Compound #127, (Z)-4,5-dichloro-N-((2-(3-(2,4-dichlorobenzyl)-6,7-dihydrobenzo[d]isoxazol-4(5H)-ylidene)-2-fluoroethyl)carbamoyl)thiophene-2-sulfonamide]",8,1
"O=C(NC/C(F)=C1/CCCc2onc(Cc3ccc(Cl)cc3Cl)c21)NS(=O)(=O)c1cc(Cl)c(Cl)s1 [Compound #128, (E)-4,5-dichloro-N-((2-(3-(2,4-dichlorobenzyl)-6,7-dihydrobenzo[d]isoxazol-4(5H)-ylidene)-2-fluoroethyl)carbamoyl)thiophene-2-sulfonamide]",8400,532
"O=C(NC/C(F)=C1\CCCn2nnc(Cc3ccccc3)c21)NS(=O)(=O)c1cc(Cl)c(Cl)s1 [Compound #129, (Z)—N-((2-(3-benzyl-6,7-dihydro-[1,2,3]triazolo[1,5-a]pyridin-4(5H)-ylidene)-2-fluoroethyl)carbamoyl)-4,5-dichlorothiophene-2-sulfonamide]",548,29
"O=C(NC/C(F)=C1\CCc2cnn(-c3ccc(C(F)(F)F)cc3)c21)NS(=O)(=O)c1cc(Cl)c(Cl)s1 [Compound #130, (Z)-4,5-dichloro-N-((2-fluoro-2-(1-(4-(trifluoromethyl)phenyl)-4,5-dihydrocyclopenta[c]pyrazol-6(1H)-ylidene)ethyl)carbamoyl)thiophene-2-sulfonamide]",182,40
"COc1ccc(Cl)cc1S(=O)(=O)NC(=O)NC/C(F)=C1\CCCc2cnn(Cc3ccc(C(F)(F)F)cc3)c21 [Compound #131, (Z)-5-chloro-N-((2-fluoro-2-(1-(4-(trifluoromethyl)benzyl)-1,4,5,6-tetrahydro-7H-indazol-7-ylidene)ethyl)carbamoyl)-2-methoxybenzenesulfonamide]",349,94
